Experiments:
Hair nuance test = assay: Hair nuance test; design: key to L* / a* / b*: CIELAB L*, a*, b* coordinates; key to ΔE (total colour difference to natural hair): ΔE = √((L*−L0)²+(a*−a0)²+(b*−b0)²) vs untreated hair; conditions: for eventual colour of bleached hair, Type B: Type B (Oxidative, H2O2) formulation; for eventual colour of bleached hair, Type C: Type C (Oxidative with coupler resorcinol) formulation; for eventual colour of bleached hair, Type A: Type A (Non-oxidative) formulation
Method: 35 g of bleaching powder was mixed with 50 mL of developer then applied onto undyed black hair (wrapped in aluminium foil to enhance the bleaching process) and left on for 45 min. The hair was then rinsed with deionized water and shampoo and left to dry. This process was repeated twice.
Hair dye formulations were prepared from N1-N13 according to methods reported (New Journal of Chemistry. 2019; 43(41):16188-99), and with the compositions stated in Table 11 Bleached hair samples were immersed into the respective formulations for 20 min, then air dried for 20 min. Then they were shampooed twice and treated with conditioner for 5 min.
SkinColorCatch (Delfin Technologies Ltd, Kuopio, Finland) was used to measure CIELAB tristimulus L*, a* and b* values of the dyed hair samples and baseline L0, a0, b0 values from untreated hair. The difference in colour tone (ΔH) and the total colour difference (ΔE) were then derived from the values obtained with the equations below:
ΔH=√{square root over ((a*−a0)^2+(b*−b0)^2)}
ΔE=√{square root over ((L*−L0)^2+(a*−a0)^2+(b*−b0)^2)}

THP-1 cells = assay: h-CLAT assay on THP-1 cells: markers against OECD cut-off, prediction, cell viability; type: cell-based, human; conditions: for CD54 and CD86 marker expression against OECD cut-off: 8 doses based on CV75, 24 h
Method: The assay was conducted as per the literature (Toxicol In Vitro, 2006, 20, 767-73). THP-1 cells were cultured in 24-well plates (1×10^6 cells/1 mL/well) with various concentrations of each chemical (N1-N13), +ve control (DNCB), −ve control for 24 h.
THP-1 cells were cultured in 24-well plates (1×10^6 cells/mL/well) and treated with recommended concentrations of each chemical (N1-N13), positive control (DNCB) or negative control (SLS) for 24 h. THP-1 cells were cultured and treated with 8 doses of N1-N13 based on the CV75 namely, 1.2×CV75, 1×CV75, 1/1.2×CV75, 1/1.2^2×CV75, 1/1.23×CV75, 1/1.24×CV75, 1/1.2^5×CV75 and 1/1.2^6×CV75. After 24 h, cells were transferred to 1.5 mL of microtubes and centrifuged at 450 g, 5 min, 4° C. Supernatant was discarded and cells were washed with 1 mL of FACS buffer (PBS+FBS+HEPES). The cells were centrifuged at 450 g, 5 min, 4° C. 50 μL of Fc block (0.01% of Globlins Cohn fraction II, III) was added and incubated for 10 min at 4° C. The cells were stained with 20 μL APC CD54 (Mouse IgG1, K, BD Biosciences, San Diego, CA, USA), 20 μL FITC CD86 (Mouse IgG1, K, BD Biosciences, San Diego, CA, USA) or their respective isotype controls and incubated for 15 min at room temperature in dark. After incubation, the antibodies were diluted with 200 μl FACS buffer. The cells were washed with 1 mL FACS buffer twice. Further, 200 μL Propidium iodide (PI, 0.625 μg/mL) prepared in FACS buffer was added before the flow cytometry analysis. Flow cytometric analysis was performed with BD LSR Fortessa™ (Becton Dickinson, San Jose, CA, USA) In total, 10,000 living cells were analysed, and data were processed using Flowjo software (v10.6, Ashland, OR, USA). The test concentration providing a cell viability of 75% (CV75) was derived from the dose response curve and was calculated by log-linear interpolation.
Geometric mean fluorescence intensity (MFI) was measured for CD54^+ and CD86^+ cells separately and percentage relative fluorescence intensity (% RFI), reflective of CD86 and CD54 relative expression was calculated as described below. RFI was not calculated if cell viability fell below 50%.
All chemicals were tested in three independent experiments. If in two of three independent experiments at any dose exceeded 150% RFI for CD86, or 200% RFI for CD54, the chemicals could be identified as a sensitizer. Otherwise it is identified as a non-sensitizer.

[1] = Type C (Oxidative with coupler resorcinol)

| Compound | L* (Hair nuance test; Type A (Non-oxidative)) | a* (Hair nuance test; Type A (Non-oxidative)) | b* (Hair nuance test; Type A (Non-oxidative)) | ΔE (total colour difference to natural hair) (Hair nuance test; Type A (Non-oxidative)) | ΔH (difference in colour tone) (Hair nuance test; Type A (Non-oxidative)) | L* (Hair nuance test; Type B (Oxidative)) | a* (Hair nuance test; Type B (Oxidative)) | b* (Hair nuance test; Type B (Oxidative)) | ΔE (total colour difference to natural hair) (Hair nuance test; Type B (Oxidative)) | ΔH (difference in colour tone) (Hair nuance test; Type B (Oxidative)) | eventual colour of bleached hair, Type B (Hair nuance test) | L* (Hair nuance test; [1]) | a* (Hair nuance test; [1]) | b* (Hair nuance test; [1]) | ΔE (total colour difference to natural hair) (Hair nuance test; [1]) | ΔH (difference in colour tone) (Hair nuance test; [1]) | eventual colour of bleached hair, Type C (Hair nuance test) | CD54 and CD86 marker expression against OECD cut-off (THP-1 cells) | eventual colour of bleached hair, Type A (Hair nuance test) | marker induction, times lower than DNCB (THP-1 cells) |
| --- | --- | --- | --- | --- | --- | --- | --- | --- | --- | --- | --- | --- | --- | --- | --- | --- | --- | --- | --- | --- |
| COC(COc1cc(N)ccc1N)OC [Compound N1, 2-(2,2-dimethoxyethoxy)benzene-1,4-diamine] | 23 | 12 | 8 | 19.7 | 13.9 | 9 | −0 | −1 | 2.0 | 2.0 | black colour | 21 | 18 | 8 | 22.7 | 19.3 | Dark brown | did not express the markers at any tested dose level |  |  |
| COCOc1cc(N)ccc1N [Compound N2, 2-(methoxymethoxy)benzene-1,4-diamine] | 11 | 1 | −2 | 3.7 | 3.16 | 9 | 0 | −1 | 2.0 | 2.0 |  | 21 | 17 | 6 | 21.4 | 17.7 | Black |  | Walnut brown | 3 |
| CCOCOc1cc(N)ccc1N [Compound N3, 2-(ethoxymethoxy)benzene-1,4-diamine] | 19 | 5 | 4 | 11.6 | 5.8 | 9 | 0 | −1 |  | 2.0 | black colour | 17 | −1 | 2 | 8.1 | 1.4 | Brownish black |  | Black | 3 |
| Nc1ccc(N)c(OCOCO)c1 [Compound N8, ((2,5-diaminophenoxy)methoxy)methanol] | 12 | −1 | 6 | 5.91 | 2.43 | 9 | 0 | −1 | 2 | 1.41 | black colour | 10 | 0 | 3 | 2.23 | 1.49 | Brown | failed to induce marker expression above the recommended % RFI cut-off | Black |  |
| Nc1ccc(N)c(OCCO)c1 [Compound N9, 2-(2,5-diaminophenoxy)ethan-1-ol] | 23 | 8 | 10 | 18.46 | 4.29 | 32 | 0 | 4 | 23.19 | 4.81 | brown colour | 29 | 19 | 19 | 32.93 | 5.73 | vibrant blue colours and Blue | failed to induce marker expression above the recommended % RFI cut-off | brown colour |  |
| CC(O)COc1cc(N)ccc1N (stereo not shown) [Compound N10, 1-(2,5-diaminophenoxy)propan-2-ol] | 25 | 12 | 6 | 20.61 | 4.53 | 11 | 1 | −2 | 3.74 | 1.93 | black colour | 30 | 18 | 18 | 32.46 | 5.69 | Brown | did not express the markers at any tested dose level | Brownish Purple |  |
| CCC(=O)COc1cc(N)ccc1N [Compound N11, 1-(2,5-diaminophenoxy)butan-2-one] | 36 | 5 | 8 | 28.33 | 5.32 | 9 | 0 | −1 | 2 | 1.41 | black colour | 32 | 18 | 25 | 37.8 | 6.14 | Pale Brown | did not express the markers at any tested dose level | Greyish brown |  |

— patent US20240197596A1, “COMPOUNDS USEFUL AS HAIR DYES” (National University of Singapore, priority 2021, published 2024)
